Data from patent US6348456B1, “Method of treating chemical dependency in mammals and a composition therefor” (priority 1994, dated 2002).

Experiment: plasma concentration of ibogaine and its metabolite 12-hydroxy ibogamine over time after ibogaine administration to a human patient
Assay type: in vivo
Protocol: An amount of ibogaine was administered to a human patient, and the plasma concentration of both ibogaine and a metabolite thereof, 12-hydroxy ibogamine, were observed as a function of time.
FIG. 1 illustrates the result of administering a certain dosage of ibogaine to a human patient, where the plasma concentration of ibogaine is measured over time. In essence, a peak plasma concentration of about 1,100 ng/ml is observed at administration. It is also notable that at about 11 hours after ibogaine administration, plasma concentration of ibogaine diminished to less than 400 ng/ml. After about 24 hours, plasma concentration diminished to less than 200 ng/ml. Thus, ibogaine is rather quickly eliminated by the patient.
By contrast, FIG. 2 illustrates the variation of noribogaine plasma concentration with time as a metabolite from the same ibogaine administration described above. In essence, a peak plasma concentration of noribogaine of about 590 ng/ml was reached only after about 11 hours from administration. Thereafter, even at 24 hours, a plasma concentration of greater than 500 ng/ml was observed.

SMILES | plasma concentration of ibogaine (after about 24 hours) | plasma concentration of ibogaine (at about 11 hours after ibogaine administration) | peak plasma concentration of ibogaine (ibogaine administered, (FIG. 1)) | plasma half-life compared with ibogaine (after ibogaine administration) | plasma concentration of noribogaine (at 24 hours, metabolite after ibogaine administration) | time from administration to peak plasma concentration of noribogaine (noribogaine as metabolite after ibogaine administration) | peak plasma concentration of noribogaine (noribogaine as metabolite from the same ibogaine administration (FIG. 2))
CC[C@H]1CC2C[C@H]3c4[nH]c5ccc(OC)cc5c4CCN(C2)C13 [ibogaine, reference compound] | less than 200 ng/ml | less than 400 ng/ml | about 1,100 ng/ml | – | – | – | –
CC[C@H]1C[C@H]2C[C@H]3c4[nH]c5ccc(O)cc5c4CCN(C2)[C@@H]13 [noribogaine, 12-hydroxy ibogamine] | – | – | – | much longer plasma half-life than ibogaine | greater than 500 ng/ml | about 11 hours | about 590 ng/ml
